Like-named read-outs stand apart in the source and are kept apart here.
Tests used:
Assay type in all cases: biochemical
[1] = biological target: T1, Human PI3K delta (Homo sapiens, UniProt O00329); assay: Human PI3K delta enzyme assay (HTRF); conditions: for inhibition at 1 µM: read-out: p110 delta Percent Inhibition
T1 construct: His (N); host or cells: SF9 insect cells (baculovirus)
From the text: (§1) The catalytic subunits of PI3Ks are cloned into either pDEST8(p110 alpha) or pDEST10(p110beta, p110delta, and p110gamma) as N-terminal His tagged fusion proteins using the Gateway system (Invitrogen, catalog#11804-010 for pDEST8 and 11806-015 for pDEST10). The sequences are verified before recombinant protein expression using the Baculovirus Expression System with Gateway® Technology. The accession numbers for the subunits are as follows: • p110 alpha (GB:U79143) • p110beta (GB: S67334) • p110delta (GB: U86453) • p110gamma (GB: X83368) • The regulatory subunits of PI3Ks are cloned into pDEST8 as un-tagged protein using the Gateway system (Catalog#11804-010). The sequences are verified before recombinant protein expression using the Baculovirus Expression System with Gateway® Technology. The accession numbers for the subunits are as following: • p85 alpha (GB: BC030815) • p101(GB: AB028925) • VPS34 (accession number GB:BC033004) is cloned into pDEST20—Thombin as N-terminal GST tagged fusion proteins using the Gateway system (Invitrogen, catalog#11804-013). The sequences are verified before recombinant protein expression using the Baculovirus Expression System with Gateway® Technology.
(§2) For expression of the p110 complexes, the p85 (MOI of 4) is co-infected with p110 alpha, beta, and delta respectively (1MOI) in SF9 cells and harvested at 60 hours post co-infection. P110 gamma was infected at 1 MOI and harvested at 60 hours post infection.
(§3) For purification, PI3Ks are purified by Ni-NTA Agarose (Qiagen #30250) followed by Mono Q 10/100 GL (Ge Healthcare #17-5167-01). VPS34 is purified by Glutathione Sepharose 4 Fast Flow (GE Healthcare #17-5132-03) followed by HiTrap Q (GE Healthcare #17-1153-01).
(§4) 0.5 uL compounds in DMSO are added to wells of a 384 well microtitre plate (Corning 3575). At room temperature: 10 ul PI3K reaction buffer (50 mM Hepes, 5 mM DTT, 150 mM NaCl, 10 mM beta-glycerophosphate, 10 mM MgCl2, 0.25 mM sodium cholate and 0.001% CHAPS, pH 7.00) containing ATP (25 uM, Promega) is added followed immediately by 10 ul PI3K reaction buffer containing di-C8 P1(4,5)P2 (3.5 uM, CellSignals) and PI3Kalpha (0.4875 nM, Millennium Protein Sciences Group) and the mixture is incubated with shaking at room temperature for 30 minutes. Then 5 ul PI3K stop mix (50 mM Hepes, 5 mM DTT, 150 mM NaCl, 0.01% Tween-20, 15 mM EDTA and 25 nM biotin-PI(3,4,5)P3 (Echelon) is added to quench the reaction followed immediately by addition of 5 ul HTRF detection mix (50 mM Hepes, 5 mM DTT, 150 mM NaCl, 0.01% Tween-20, 40 mM KF, 1.0 nM GST:GRP-1 PH domain (Millennium Protein Sciences Group), 15 nM Streptavidin-XL (CisBio) and 0.375 nM anti-GST Eu++ antibody (CisBio) at pH 7.00). The plates are then incubated for 1 hour at room temperature with shaking and then read on a BMG PheraStar Plus reader.
(§5) 2) Human PI3K beta, delta and gamma isoforms are tested using the procedure described for PI3K alpha above but with the following changes: PI3K beta (5.25 nM), PI3K delta (0.75 nM) and PI3K gamma (5 nM). All isoforms supplied by Millennium Protein Science Group.
(§6) For the assay methods described above, test compound percent inhibition, at various concentrations, is calculated relative to control (DMSO and EDTA) treated samples. Compound concentration versus percent inhibition curves are fitted to generate IC50 values. One skilled in the art will appreciate that the values generated either as percentage inhibition at a single concentration or IC50 values are subject to experimental variation.

[2] = biological target: T2, Human PI3K beta (Homo sapiens, UniProt P42338); assay: Human PI3K beta enzyme assay (HTRF); conditions: for inhibition at 1.1 µM: read-out: p110 beta Percent Inhibition
T2 construct: His (N); host or cells: SF9 insect cells (baculovirus)
Method in brief: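 Compounds were mixed with 25 uM ATP, then with 3.5 uM di-C8 PI(4,5)P2 and His-tagged PI3K isoform (β 5.25 nM, δ 0.75 nM, γ 5 nM) at pH 7.00. After 30 min at room temperature, EDTA stopped the reaction and PIP3 was measured by HTRF over 1 h.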

[3] = biological target: T3, Human PI3K alpha (Homo sapiens, UniProt P42336); assay: Human PI3K alpha enzyme assay (HTRF); conditions: for inhibition at 1.1 µM: read-out: p110 alpha Percent Inhibition
T3 construct: His (N); host or cells: SF9 insect cells (baculovirus)

[4] = biological target: T4, Human PI3K gamma (Homo sapiens, UniProt P48736); assay: Human PI3K gamma enzyme assay (HTRF); conditions: for inhibition at 1 µM: read-out: p110 gamma Percent Inhibition
T4 construct: His (N); host or cells: SF9 insect cells (baculovirus)
From the text: as §1, §2, §3, §4, §5, §6

[5] = concentration not given, b1389 states 1.0 μM for PI3K δ and γ
[6] = concentration not given, b1387 states 1.1 μM for PI3K α and β

T3 sequence (P42336 whole entry): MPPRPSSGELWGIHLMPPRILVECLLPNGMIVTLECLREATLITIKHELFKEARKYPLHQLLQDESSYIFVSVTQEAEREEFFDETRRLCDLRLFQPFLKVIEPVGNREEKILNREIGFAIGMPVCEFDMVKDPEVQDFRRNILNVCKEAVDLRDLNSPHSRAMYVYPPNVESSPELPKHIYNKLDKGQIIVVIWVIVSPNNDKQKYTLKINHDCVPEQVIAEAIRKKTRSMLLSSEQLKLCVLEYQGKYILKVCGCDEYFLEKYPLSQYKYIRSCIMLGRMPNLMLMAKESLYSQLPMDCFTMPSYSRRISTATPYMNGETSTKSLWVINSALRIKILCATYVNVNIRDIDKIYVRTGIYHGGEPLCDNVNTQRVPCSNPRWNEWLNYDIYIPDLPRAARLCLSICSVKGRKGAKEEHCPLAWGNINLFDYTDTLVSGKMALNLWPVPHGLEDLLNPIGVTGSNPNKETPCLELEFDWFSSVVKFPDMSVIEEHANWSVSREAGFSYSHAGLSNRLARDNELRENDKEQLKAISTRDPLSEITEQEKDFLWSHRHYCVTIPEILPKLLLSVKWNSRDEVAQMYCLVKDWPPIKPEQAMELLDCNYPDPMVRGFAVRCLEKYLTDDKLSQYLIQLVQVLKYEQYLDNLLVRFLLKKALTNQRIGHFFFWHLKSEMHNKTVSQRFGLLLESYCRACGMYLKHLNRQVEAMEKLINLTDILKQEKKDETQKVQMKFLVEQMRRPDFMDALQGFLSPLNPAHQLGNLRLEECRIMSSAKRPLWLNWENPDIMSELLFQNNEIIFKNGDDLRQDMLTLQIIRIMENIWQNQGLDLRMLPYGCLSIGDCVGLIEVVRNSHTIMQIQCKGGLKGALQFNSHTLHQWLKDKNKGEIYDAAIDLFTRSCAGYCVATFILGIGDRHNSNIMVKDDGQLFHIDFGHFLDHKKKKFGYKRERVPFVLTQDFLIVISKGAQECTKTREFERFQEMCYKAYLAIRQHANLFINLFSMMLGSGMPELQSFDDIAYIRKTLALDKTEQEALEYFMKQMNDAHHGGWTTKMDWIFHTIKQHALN
T3 sequence (P27986 whole entry partner): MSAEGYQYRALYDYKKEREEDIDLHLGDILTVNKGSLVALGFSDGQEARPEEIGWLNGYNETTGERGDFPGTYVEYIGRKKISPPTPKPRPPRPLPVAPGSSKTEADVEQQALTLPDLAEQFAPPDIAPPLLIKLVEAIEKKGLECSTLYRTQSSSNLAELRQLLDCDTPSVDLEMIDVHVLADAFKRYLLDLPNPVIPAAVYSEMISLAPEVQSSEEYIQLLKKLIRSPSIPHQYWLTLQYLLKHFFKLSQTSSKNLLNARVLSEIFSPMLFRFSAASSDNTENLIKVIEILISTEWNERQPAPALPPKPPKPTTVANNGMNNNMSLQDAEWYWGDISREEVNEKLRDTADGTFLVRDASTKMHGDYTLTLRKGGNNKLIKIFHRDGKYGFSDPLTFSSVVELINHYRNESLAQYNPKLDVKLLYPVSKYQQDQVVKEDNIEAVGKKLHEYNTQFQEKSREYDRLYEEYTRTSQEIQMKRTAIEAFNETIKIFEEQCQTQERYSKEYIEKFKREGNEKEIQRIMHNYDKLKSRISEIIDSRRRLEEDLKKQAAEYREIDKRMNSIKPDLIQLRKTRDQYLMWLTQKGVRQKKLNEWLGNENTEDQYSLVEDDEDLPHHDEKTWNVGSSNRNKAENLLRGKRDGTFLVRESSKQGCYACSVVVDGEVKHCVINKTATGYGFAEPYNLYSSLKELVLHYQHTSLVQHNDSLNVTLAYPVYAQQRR
T4 sequence (P48736 whole entry): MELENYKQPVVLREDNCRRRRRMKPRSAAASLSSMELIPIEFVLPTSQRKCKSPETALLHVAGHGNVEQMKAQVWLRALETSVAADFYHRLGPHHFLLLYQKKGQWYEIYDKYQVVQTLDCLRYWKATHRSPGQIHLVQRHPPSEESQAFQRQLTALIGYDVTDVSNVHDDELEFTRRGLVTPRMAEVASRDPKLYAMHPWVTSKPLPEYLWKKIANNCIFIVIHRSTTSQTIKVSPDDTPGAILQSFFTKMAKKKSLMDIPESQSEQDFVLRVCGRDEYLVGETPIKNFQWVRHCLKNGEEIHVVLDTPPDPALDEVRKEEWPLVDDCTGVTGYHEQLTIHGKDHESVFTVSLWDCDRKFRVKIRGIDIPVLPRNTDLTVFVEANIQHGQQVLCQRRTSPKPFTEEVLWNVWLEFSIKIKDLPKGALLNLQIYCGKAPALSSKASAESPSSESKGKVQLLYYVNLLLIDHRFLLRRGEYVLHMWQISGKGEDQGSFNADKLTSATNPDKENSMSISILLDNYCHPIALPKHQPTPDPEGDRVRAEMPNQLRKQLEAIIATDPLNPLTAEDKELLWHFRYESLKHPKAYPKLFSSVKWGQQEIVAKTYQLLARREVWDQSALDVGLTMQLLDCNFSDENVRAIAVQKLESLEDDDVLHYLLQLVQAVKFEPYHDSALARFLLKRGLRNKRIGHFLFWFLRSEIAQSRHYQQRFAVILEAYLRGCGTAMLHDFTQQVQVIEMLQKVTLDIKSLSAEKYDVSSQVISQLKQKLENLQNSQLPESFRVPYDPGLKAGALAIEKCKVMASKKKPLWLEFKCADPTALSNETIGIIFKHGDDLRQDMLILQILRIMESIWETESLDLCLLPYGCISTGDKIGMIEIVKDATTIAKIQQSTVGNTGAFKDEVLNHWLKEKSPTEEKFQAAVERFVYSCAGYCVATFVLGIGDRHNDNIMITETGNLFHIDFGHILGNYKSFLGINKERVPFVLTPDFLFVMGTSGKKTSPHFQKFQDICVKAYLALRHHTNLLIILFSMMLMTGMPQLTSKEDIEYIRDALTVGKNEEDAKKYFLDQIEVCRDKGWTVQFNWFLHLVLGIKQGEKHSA
T1 sequence (O00329 whole entry): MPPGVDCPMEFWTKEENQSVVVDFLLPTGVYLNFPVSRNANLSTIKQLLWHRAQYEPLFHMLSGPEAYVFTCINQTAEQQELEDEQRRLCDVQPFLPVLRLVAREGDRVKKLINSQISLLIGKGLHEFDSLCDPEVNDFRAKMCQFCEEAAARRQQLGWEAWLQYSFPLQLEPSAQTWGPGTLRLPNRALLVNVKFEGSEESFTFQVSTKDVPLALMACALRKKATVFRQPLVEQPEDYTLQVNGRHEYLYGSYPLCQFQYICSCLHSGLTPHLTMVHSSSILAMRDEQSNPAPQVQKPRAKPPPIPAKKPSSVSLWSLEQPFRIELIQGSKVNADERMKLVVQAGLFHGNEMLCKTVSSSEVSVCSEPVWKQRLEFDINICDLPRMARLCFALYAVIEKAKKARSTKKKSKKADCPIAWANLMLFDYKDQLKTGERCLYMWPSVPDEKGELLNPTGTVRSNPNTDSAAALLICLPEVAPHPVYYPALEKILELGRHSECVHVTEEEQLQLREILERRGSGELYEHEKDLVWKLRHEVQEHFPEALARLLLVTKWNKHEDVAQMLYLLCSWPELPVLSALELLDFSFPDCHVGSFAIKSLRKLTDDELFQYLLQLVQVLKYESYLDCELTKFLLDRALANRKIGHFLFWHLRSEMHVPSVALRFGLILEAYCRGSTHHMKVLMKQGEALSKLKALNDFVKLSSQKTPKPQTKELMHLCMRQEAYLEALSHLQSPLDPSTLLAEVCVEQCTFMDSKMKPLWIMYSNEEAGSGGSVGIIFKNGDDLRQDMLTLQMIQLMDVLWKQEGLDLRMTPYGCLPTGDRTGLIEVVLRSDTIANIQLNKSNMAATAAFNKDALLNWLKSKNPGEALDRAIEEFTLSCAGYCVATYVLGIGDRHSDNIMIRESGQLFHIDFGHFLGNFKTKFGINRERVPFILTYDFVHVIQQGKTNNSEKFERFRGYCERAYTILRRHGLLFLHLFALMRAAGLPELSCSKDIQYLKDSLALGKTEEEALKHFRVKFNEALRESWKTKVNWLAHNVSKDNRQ
T1 sequence (P27986 whole entry partner): as the sequence (P27986 whole entry partner) above
T2 sequence (P42338 whole entry): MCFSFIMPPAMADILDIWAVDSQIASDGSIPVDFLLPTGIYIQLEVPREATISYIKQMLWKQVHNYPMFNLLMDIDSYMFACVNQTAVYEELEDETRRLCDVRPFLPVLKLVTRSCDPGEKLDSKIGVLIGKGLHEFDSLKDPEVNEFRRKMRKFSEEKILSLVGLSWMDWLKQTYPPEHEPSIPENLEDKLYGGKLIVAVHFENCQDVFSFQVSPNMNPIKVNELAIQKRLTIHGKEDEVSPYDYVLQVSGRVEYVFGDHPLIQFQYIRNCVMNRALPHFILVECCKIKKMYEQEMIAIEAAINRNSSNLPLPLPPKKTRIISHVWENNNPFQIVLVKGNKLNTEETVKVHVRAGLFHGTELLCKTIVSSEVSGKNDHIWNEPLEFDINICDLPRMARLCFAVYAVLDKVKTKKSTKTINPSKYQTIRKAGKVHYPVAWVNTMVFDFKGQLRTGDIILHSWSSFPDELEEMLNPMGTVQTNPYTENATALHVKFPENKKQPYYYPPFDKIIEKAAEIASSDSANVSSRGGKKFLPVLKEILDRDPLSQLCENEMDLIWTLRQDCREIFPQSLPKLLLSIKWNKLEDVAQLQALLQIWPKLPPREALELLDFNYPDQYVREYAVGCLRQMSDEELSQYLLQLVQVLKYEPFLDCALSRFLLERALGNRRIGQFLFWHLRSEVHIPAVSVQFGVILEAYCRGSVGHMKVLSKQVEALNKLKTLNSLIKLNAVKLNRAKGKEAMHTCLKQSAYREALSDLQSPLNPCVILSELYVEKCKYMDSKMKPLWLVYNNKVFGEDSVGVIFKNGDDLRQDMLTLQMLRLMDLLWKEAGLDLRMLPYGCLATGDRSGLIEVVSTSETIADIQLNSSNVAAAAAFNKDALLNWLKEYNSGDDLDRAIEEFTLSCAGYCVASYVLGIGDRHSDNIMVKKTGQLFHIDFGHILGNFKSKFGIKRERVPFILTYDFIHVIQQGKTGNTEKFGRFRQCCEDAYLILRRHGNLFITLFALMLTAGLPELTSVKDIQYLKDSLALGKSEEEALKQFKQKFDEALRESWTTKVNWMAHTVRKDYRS
T2 sequence (P27986 whole entry partner): as the sequence (P27986 whole entry partner) above

| Structure (SMILES) | inhibition at 1 µM [1, 5] [%] | inhibition at 1.1 µM [2, 6] [%] | inhibition at 1.1 µM [3, 6] [%] | inhibition at 1 µM [4, 5] [%] | other results |
| --- | --- | --- | --- | --- | --- |
| CC(=O)Nc1cc(-c2cc(C(c3ccc(Cl)cc3)N3CCC[C@H]3CO)c(-c3nnc[nH]3)s2)ccn1 (single isomer, unassigned) [Compound 192] |  |  |  |  | p110 delta Percent Inhibition [1, 5]: 100%; p110 beta Percent Inhibition [2, 6]: 90%; p110 alpha Percent Inhibition [3, 6]: 48%; p110 gamma Percent Inhibition [4, 5]: 12% |
| O=C(O)c1sc(-c2ccncc2)cc1C(O)c1ccc2ccccc2c1 (stereo not drawn) [Compound 205, 3-[hydroxy(2-naphthyl)methyl]-5-pyridin-4-ylthiophene-2-carboxylic acid] | 83 | 114 | 42 | 64 |  |
| Cc1c(F)cccc1C(O)c1cc(-c2ccncc2)sc1-c1nnc[nH]1 (stereo not drawn) [Compound 138] | 69 | 86 | 43 | 13 |  |
| CC(=O)Nc1cc(-c2cc(C(c3ccc(Cl)cc3)N3CCC[C@@H]3CO)c(-c3nnc[nH]3)s2)ccn1 (single isomer, unassigned) [Compound 283] |  |  |  |  | p110 delta Percent Inhibition [1, 5]: 99%; p110 beta Percent Inhibition [2, 6]: 98%; p110 alpha Percent Inhibition [3, 6]: 96%; p110 gamma Percent Inhibition [4, 5]: 18% |
| COC(=O)Nc1cc(-c2sc(-c3nnc[nH]3)c(Cc3ccc4ccccc4c3)c2C#N)ccn1 [Compound 179] | 89 | 60 | 29 | 5 |  |
| CC(=O)Nc1cc(-c2sc(-c3nnc[nH]3)c(C(O)c3ccc(Cl)cc3)c2C#N)ccn1 (stereo not drawn) [Compound 165] | 87 | 77 | 64 | 14 |  |
| OC(c1ccc(Cl)cc1)c1cc(-c2ccnc(Nc3ncco3)c2)sc1-c1nnc[nH]1 (stereo not drawn) [Compound 147] | 107 | 96 | 83 | 18 |  |
| OC(c1ccccc1-c1cccnc1)c1cc(-c2ccncc2)sc1-c1nnc[nH]1 (stereo not drawn) [Compound 276] | 12 | 15 | 4 | 6 |  |
| N#Cc1c(N2CCOCC2)sc(C(=O)O)c1Cc1ccc2ccc(F)cc2c1 [Compound 287] | 112 |  |  |  |  |
| O=C(O)c1[se]c(N2CCOCC2)nc1Cc1ccc(Cl)cc1 [Compound 370, 4-(4-chlorobenzyl)-2-morpholino-1,3-selenazole-5-carboxylic acid] |  |  |  |  | inhibition at 1 µM [1]: 62%; inhibition at 1.1 µM [2]: 98%; inhibition at 1.1 µM [3]: 22%; inhibition at 1 µM [4]: 12% |
| COc1cc(C(O)c2cc(-c3ccncc3)sc2-c2nnc[nH]2)c(F)cc1Cl (stereo not drawn) [Compound 279] | 78 | 106 | 19 | 42 |  |
| OC(c1ccc(-c2ncccn2)cc1)c1cc(-c2ccncc2)sc1-c1nnc[nH]1 (stereo not drawn) [Compound 252] | 60 | 85 | 58 | 12 |  |
| CC(=O)Nc1cc(-c2cc(C(c3ccc(Cl)cc3)N3CC(CCN)C3)c(-c3nnc[nH]3)s2)ccn1 (stereo not drawn) [Compound 270] | 111 | 114 | 81 | 24 |  |
| CC(=O)Nc1cc(-c2cc(C(NCCO)c3ccc(Cl)cc3)c(-c3nnc[nH]3)s2)ccn1 (stereo not drawn) [Compound 226] | 93 | 98 | 46 | 14 |  |
| OC(c1ccc(F)c(F)c1)c1cc(-c2ccncc2)sc1-c1nnc[nH]1 (stereo not drawn) [Compound 199] | 42 | 64 | 21 | 16 |  |
| Cn1c(Cc2c(C(=O)O)sc(N3CCOCC3)c2C#N)cc2ccccc21 [Compound 330] | 106 | 109 | 85 | 61 |  |

| Structure (SMILES) | inhibition at 1 µM [1, 5] [%] | inhibition at 1.1 µM [2, 6] [%] | inhibition at 1.1 µM [3, 6] [%] | inhibition at 1 µM [4, 5] [%] | other results |
| --- | --- | --- | --- | --- | --- |
| CC(=O)Nc1cc(-c2nc(Cc3ccc4ccccc4c3)c(-c3nnc[nH]3)s2)ccn1 [Compound 213] | 109 | 80 | 57 | 35 |  |
| CC(=O)Nc1cc(-c2cc(C(c3ccc(Cl)cc3)N3CC(F)(F)C3)c(-c3nnc[nH]3)s2)ccn1 (stereo not drawn) [Compound 216] | 99 | 91 | 64 | 11 |  |
| CC(=O)Nc1cc(-c2nc(C(c3ccc(Cl)cc3)N3CCNCC3)c(-c3nnc[nH]3)s2)ccn1 (stereo not drawn) [Compound 229] | 106 | 105 | 62 | 16 |  |
| Cc1cc(-c2cc(C(c3ccc(Cl)cc3)N(C)C)c(-c3nnc[nH]3)s2)ccn1 (stereo not drawn) [Compound 161] | 40 | 60 | 14 | 7 |  |
| OC(c1cc(-c2ccncc2)sc1-c1nnc[nH]1)c1c(F)ccc2ccccc12 (stereo not drawn) [Compound 281] |  | 96 |  |  | p110 delta Percent Inhibition [1, 5]: 97%; p110 alpha Percent Inhibition [3, 6]: 52%; p110 gamma Percent Inhibition [4, 5]: 56% |
| N#Cc1c(N2CCOCC2)sc(C(=O)O)c1Cc1ccc2c(c1)CCCC2 [Compound 305] | 74 |  |  |  |  |
| COC(c1ccc2ccccc2c1)c1c(C(=O)O)sc(N2CCOCC2)c1C#N (stereo not drawn) [Compound 337] |  |  |  |  | p110 delta Percent Inhibition [1, 5]: 46% |
| N#Cc1c(N2CCOCC2)sc(C(N)=O)c1C(F)(F)c1ccc2ccccc2c1 [Compound 307] | 62 |  |  |  |  |
| N#Cc1c(N2CCOCC2)sc(-c2nnn[nH]2)c1C(F)(F)c1ccc2ccccc2c1 [Compound 349] | 96 |  |  |  |  |
| N#Cc1c(N2CCOCC2)sc(C(=O)O)c1C(F)c1ccc2ccccc2c1 (stereo not drawn) [Compound 345] | 83 |  |  |  | p110 alpha Percent Inhibition [3, 6]: 64% |
| N#Cc1c(N2CCOCC2)sc(C(=O)O)c1Cc1cc2ccccc2cc1F [Compound 295] | 112 |  |  |  |  |
| N#Cc1c(N2CCOCC2)sc(C(=O)O)c1Cc1cc(F)c(Cl)cc1F [Compound 300] | 97 |  |  |  |  |
| N#Cc1c(N2CCOCC2)sc(C(=O)O)c1Cc1cc(F)c2ccccc2c1 [Compound 324] | 113 |  |  |  |  |
| N#Cc1c(N2CCOCC2)sc(C(=O)O)c1Cc1ccc2ccccc2c1F [Compound 293] | 110 |  |  |  |  |
| N#Cc1c(N2CCOCC2)sc(C(=O)O)c1C(F)(F)c1ccc2ccccc2c1 [Compound 308] | 92 |  |  |  |  |
| N#Cc1c(N2CCOCC2)sc(C(=O)O)c1Cc1ccc2c(F)cccc2c1 [Compound 343] | 113 |  |  |  |  |
